Measured values from patent US10449216B2, “Modulating drug effects against metabotropic glutamate receptor with extracellular calcium” (GEORGIA STATE UNIVERSITY RESEARCH FOUNDATION, INC., priority 2013, dated 2019).
Entries after “also recorded” stand apart in the source; their conditions may differ. Like-named read-outs stand apart in the source and are kept apart here.

Columns and labels:
mGluR1 [1] = biological target: mGluR1 (Rattus norvegicus, UniProt P23385); settings: mGluR1, Sp. Rn; cited from earlier work
Chain of mGluR1 (Rattus norvegicus, UniProt P23385) (P23385 19-1199): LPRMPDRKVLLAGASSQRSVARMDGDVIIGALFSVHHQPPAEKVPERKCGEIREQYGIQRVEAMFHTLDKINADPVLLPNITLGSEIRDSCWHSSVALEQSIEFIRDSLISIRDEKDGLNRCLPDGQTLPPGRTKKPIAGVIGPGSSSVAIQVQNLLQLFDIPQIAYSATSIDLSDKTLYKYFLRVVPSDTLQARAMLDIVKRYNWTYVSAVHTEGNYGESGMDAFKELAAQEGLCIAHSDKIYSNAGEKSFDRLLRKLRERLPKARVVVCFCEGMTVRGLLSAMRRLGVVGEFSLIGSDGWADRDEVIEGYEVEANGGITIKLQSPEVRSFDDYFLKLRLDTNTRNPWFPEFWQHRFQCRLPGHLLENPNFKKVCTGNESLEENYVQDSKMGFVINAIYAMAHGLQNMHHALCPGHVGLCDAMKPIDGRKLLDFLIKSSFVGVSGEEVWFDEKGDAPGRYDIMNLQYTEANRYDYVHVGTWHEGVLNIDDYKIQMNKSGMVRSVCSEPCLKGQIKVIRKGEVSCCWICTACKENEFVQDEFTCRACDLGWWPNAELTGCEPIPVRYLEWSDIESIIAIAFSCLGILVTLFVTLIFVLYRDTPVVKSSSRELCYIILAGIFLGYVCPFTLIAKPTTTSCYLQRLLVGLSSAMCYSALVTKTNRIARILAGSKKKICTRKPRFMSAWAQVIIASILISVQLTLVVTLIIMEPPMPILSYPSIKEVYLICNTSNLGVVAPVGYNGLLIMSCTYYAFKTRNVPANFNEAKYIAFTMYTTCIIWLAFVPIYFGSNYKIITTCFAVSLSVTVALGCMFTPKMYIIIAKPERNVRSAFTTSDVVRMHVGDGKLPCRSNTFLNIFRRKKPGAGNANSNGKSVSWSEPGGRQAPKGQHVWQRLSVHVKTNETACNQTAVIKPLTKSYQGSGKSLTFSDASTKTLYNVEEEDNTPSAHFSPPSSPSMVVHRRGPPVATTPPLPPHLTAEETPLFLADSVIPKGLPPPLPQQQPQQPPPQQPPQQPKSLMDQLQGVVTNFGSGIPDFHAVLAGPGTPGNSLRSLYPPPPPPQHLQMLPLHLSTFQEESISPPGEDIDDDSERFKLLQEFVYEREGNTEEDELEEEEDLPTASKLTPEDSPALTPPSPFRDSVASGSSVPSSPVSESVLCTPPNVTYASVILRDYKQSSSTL

mGluR5 [2] = biological target: T1, mGluR5 (Rattus norvegicus, UniProt P31424); settings: mGluR5, Sp. Rn; cited from earlier work
T1 sequence (P31424 21-1203): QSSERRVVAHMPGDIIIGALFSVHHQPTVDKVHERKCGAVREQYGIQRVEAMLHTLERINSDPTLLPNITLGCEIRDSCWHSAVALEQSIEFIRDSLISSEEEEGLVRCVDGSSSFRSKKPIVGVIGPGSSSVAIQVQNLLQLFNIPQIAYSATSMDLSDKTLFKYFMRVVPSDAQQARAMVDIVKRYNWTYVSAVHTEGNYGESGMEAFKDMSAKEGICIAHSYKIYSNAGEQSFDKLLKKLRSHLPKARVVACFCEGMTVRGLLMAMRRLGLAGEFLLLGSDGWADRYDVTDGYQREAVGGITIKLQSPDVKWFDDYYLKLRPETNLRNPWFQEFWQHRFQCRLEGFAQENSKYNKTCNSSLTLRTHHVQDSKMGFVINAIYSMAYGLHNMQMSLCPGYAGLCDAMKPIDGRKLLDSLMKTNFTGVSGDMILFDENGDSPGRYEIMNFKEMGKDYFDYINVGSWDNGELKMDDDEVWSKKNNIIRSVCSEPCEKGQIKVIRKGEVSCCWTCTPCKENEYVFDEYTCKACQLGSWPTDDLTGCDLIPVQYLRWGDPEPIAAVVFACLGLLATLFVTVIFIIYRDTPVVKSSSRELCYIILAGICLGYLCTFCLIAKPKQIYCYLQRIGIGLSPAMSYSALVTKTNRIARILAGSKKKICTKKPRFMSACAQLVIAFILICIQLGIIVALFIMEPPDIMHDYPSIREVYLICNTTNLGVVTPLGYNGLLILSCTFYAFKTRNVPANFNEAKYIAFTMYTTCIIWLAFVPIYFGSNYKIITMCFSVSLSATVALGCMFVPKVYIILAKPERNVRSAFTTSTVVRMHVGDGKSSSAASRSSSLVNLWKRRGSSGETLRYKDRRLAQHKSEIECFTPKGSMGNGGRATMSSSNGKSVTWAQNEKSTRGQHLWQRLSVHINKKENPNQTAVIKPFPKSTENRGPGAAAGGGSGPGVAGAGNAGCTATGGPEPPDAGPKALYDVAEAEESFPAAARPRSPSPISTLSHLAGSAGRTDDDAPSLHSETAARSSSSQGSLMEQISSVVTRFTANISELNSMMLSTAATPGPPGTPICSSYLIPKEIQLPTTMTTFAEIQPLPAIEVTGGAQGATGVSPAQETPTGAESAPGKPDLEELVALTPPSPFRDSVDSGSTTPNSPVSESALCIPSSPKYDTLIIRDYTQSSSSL

mGluR1 [3] = biological target: mGluR1 (Homo sapiens, UniProt Q13255); settings: mGluR1, Sp. Hs; cited from earlier work
Chain of mGluR1 (Homo sapiens, UniProt Q13255) (Q13255 19-1194): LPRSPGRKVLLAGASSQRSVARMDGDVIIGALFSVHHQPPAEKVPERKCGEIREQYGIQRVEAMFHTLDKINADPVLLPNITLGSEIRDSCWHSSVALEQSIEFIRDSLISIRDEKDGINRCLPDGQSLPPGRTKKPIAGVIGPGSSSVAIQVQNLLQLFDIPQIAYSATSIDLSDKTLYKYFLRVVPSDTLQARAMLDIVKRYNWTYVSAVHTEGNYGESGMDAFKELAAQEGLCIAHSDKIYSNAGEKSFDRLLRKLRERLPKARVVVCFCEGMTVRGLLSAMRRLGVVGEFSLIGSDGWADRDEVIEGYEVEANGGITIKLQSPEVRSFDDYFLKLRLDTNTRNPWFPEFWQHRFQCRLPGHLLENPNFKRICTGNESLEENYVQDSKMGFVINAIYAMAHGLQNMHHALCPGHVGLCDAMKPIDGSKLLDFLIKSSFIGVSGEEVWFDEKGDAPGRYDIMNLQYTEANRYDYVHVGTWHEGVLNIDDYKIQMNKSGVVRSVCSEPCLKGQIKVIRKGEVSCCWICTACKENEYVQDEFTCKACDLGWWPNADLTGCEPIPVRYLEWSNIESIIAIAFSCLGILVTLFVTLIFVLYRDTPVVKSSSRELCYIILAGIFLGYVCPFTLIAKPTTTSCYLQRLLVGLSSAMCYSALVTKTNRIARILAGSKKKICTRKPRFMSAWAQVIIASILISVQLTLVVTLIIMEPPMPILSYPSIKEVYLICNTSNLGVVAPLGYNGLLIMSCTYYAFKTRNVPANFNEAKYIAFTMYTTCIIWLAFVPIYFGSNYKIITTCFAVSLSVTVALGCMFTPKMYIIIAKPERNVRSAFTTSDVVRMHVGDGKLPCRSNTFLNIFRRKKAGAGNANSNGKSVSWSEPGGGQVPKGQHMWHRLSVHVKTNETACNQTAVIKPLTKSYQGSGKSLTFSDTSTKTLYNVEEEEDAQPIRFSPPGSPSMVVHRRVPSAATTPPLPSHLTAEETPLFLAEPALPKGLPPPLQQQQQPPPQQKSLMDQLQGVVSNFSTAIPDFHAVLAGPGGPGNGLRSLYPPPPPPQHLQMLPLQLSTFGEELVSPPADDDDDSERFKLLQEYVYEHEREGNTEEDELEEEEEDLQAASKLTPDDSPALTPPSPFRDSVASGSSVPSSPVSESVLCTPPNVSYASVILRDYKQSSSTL

WT mGluR1α = biological target: T2, WT mGluR1α (Rattus norvegicus, UniProt P23385); assay: Single cell Fura-2 [Ca^2+]i response in HEK293 cells transiently transfected with WT mGluR1α; assay type: cell-based; settings: for Max. Res. to Ro 67-4853: normalized to maximal response of WT mGluR1α to L-Glu; for EC50: read-out: EC50 of Ro 67-4853
T2 construct: expressed in transfected cells; host or cells: HEK293
T2 sequence (P23385 19-1199): as the sequence (P23385 19-1199) above
Experimental: The methods for measuring [Ca^2+]i responses were as described above. In the presence of (s)-MCPG, the cells were incubated with 0.5 mM (s)-MCPG in a saline buffer for 30 more minutes after Fura-2 loading.
Fura-2AM was used for monitoring [Ca^2+]i in real time as described above. […] Cells loaded with Fura-2AM were mounted onto a chamber perfused with saline buffer.

mGluR5 [4] = biological target: mGluR5 (Homo sapiens, UniProt P41594); settings: mGluR5, Sp. Hs; cited from earlier work
Chain of mGluR5 (Homo sapiens, UniProt P41594) (P41594 21-1212): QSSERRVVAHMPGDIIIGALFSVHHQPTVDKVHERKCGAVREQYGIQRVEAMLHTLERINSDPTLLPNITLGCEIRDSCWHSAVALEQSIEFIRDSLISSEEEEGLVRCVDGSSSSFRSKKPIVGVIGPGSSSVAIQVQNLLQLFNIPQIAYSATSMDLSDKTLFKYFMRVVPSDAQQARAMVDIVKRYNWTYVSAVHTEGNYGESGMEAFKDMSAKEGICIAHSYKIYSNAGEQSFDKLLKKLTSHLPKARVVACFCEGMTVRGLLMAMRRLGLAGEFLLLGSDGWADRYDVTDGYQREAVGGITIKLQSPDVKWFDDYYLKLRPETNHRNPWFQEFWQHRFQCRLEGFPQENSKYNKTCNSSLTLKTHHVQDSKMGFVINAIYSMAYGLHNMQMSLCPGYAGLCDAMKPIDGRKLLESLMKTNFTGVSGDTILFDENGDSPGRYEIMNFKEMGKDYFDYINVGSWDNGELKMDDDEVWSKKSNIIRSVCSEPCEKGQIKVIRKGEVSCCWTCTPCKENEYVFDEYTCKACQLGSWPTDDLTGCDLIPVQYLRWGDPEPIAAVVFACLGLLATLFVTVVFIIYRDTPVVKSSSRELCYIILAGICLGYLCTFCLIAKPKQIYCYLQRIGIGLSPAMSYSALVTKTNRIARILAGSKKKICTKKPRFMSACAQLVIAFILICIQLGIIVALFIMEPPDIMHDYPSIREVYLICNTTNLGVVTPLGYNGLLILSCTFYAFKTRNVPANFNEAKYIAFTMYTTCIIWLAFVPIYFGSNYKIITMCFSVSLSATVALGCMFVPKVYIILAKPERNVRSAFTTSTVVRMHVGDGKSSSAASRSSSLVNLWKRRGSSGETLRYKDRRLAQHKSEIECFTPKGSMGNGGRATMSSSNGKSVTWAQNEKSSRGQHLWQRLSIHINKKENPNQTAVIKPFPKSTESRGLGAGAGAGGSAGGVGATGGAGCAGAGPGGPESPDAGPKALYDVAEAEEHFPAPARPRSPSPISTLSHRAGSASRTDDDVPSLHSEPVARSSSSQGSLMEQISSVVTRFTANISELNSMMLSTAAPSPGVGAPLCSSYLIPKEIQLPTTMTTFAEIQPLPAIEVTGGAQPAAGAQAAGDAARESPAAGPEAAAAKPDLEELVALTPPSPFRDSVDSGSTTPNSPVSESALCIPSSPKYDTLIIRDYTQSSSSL

mGluR5 [5] = biological target: T1, mGluR5; assay: Intracellular Ca^2+ response/oscillation in mGluR5 transfected HEK293 cells; assay type: cell-based; design: expressed in transfected cells; host or cells: HEK293; settings: for Percentage of cells with oscillation as a response to L-Glu: low concentration of L-Glu
Experimental: HEK293 cells were fed on a Dulbecco's Modified Eagle Medium (DMEM) and 10% fetal bovine serum (Invitrogen) and cultured at 37° C. in a humidified incubator with 5% CO2. One day before transfection, HEK293 cells were grown on 22×44 mm coverslips and then were transfected with mGluR5 plasmid (received as a gift from Dr. Randy Hall, Emory University, Atlanta, Ga.) with the aid of lipofectamine 2000 (Invitrogen). mGluR5 transfected HEK293 cells were grown for 48 hours and then loaded with 4 µM Fura-2 AM in loading buffer containing 10 mM HEPES (pH 7.4), 140 mM NaCl, 5 mM KCl, 0.55 mM MgCl2 for 30 minutes at 37° C. The coverslips were then mounted in a bathing chamber on the stage of a fluorescence microscope. […] The ratio of fluorescence emitted at 510 nm resulting from excitation at 340 or 380 nm was analyzed to obtain the [Ca^2+]i response as a function of changes in [Ca^2+]o.
HEK293 cells were cultured and transfected as described above. Intracellular Ca^2+ concentration was recorded using the method as described previously. […]

mGluR1α D322I = biological target: T3, mGluR1α D322I (Rattus norvegicus, UniProt P23385, D322I); assay: Single cell Fura-2 [Ca^2+]i response in HEK293 cells transfected with mGluR1α variant D322I; assay type: cell-based; settings: HEK293, read-out: Maximal Response to L-Quis, D322I, normalized to maximal response of WT mGluR1α to L-Glu
T3 construct: expressed in transfected cells; host or cells: HEK293
T3 sequence (P23385 19-1199 D322I): as the sequence (P23385 19-1199) above, with D304I counted along it

mGluR1α E325I = biological target: T4, mGluR1α E325I (Rattus norvegicus, UniProt P23385, E325I); assay: Single cell Fura-2 [Ca^2+]i response in HEK293 cells transfected with mGluR1α variant E325I; assay type: cell-based; settings: HEK293, read-out: Maximal Response to L-Quis, E325I, normalized to maximal response of WT mGluR1α to L-Glu
T4 construct: expressed in transfected cells; host or cells: HEK293
T4 sequence (P23385 19-1199 E325I): as the sequence (P23385 19-1199) above, with E307I counted along it

mGluR1α D318I = biological target: T5, mGluR1α D318I (Rattus norvegicus, UniProt P23385, D318I); assay: [^3H]-L-Quis binding to membranes of HEK293 cells expressing D318I; settings: hypotonic buffer
T5 construct: expressed in transfected cells; host or cells: HEK293
T5 sequence (P23385 19-1199 D318I): as the sequence (P23385 19-1199) above, with D300I counted along it
Experimental: HEK293 cells transiently transfected with wild type mGluR1α or its mutants were maintained in a 5% CO2 37° C. incubator for an additional 48 hours as before. Cells were then collected in ice cold hypotonic buffer (20 mM HEPES, 100 mM NaCl, 5 mM MgCl2, 5 mM KCl, 0.5 mM EDTA, and 1% protease inhibitors at pH 7.0-7.5). The cell pellet was washed twice more using hypotonic buffer to remove the L-Glu in the cellular debris. The crude membrane protein (100 μg) was mixed with 30 nM [^3H]-L-Quis in 100 μL of hypotonic buffer. The nonspecific binding was determined by measuring bound [^3H]-L-Quis in the presence of 200 μM L-Glu. […] The reaction mixtures were incubated on ice for at least 1 hour, and the membrane-bound [^3H]-L-Quis was captured on filter paper using a Brandel cell harvester under vacuum. The filter paper was then transferred to scintillation fluid, and [^3H]-L-Quis was detected using a Beckman LS 6500 multi-purpose scintillation counter.

Compound: NC(C(=O)O)c1cc(O)cc(O)c1 (stereo not shown) [3,5-DHPG]
- Affinity (pKi) (mGluR1 [1]): 5.8 pKi
- Affinity (pIC50) (mGluR5 [2]): 5.4 pIC50

Compound: CCCOC(=O)c1[nH]c(C)c(C(=O)OC(C)C(C)(C)C)c1C (stereo not shown) [3,5-dimethyl PPP]
- Affinity (pIC50) (mGluR1 [1]): 7.8 pIC50

Compound: Cc1cc(C(=O)O)sc1C(N)C(=O)O (stereo not shown) [3-MATIDA]
- Affinity (pIC50) (mGluR1 [1]): 5.2 pIC50

Compound: N[C@@]1(C(=O)O)CC[C@@H](C(=O)O)C1 [(1S,3R)-ACPD]
- Affinity (pIC50) (mGluR5 [2]): 5.7 pIC50

Compound: N[C@H](C(=O)O)c1cccc(O)c1 [(S)-3HPG]
- Affinity (pIC50) (mGluR1 [1]): 4.9 pIC50
- Affinity (pIC50) (mGluR5 [2]): 5 pIC50

Compound: N[C@H](C(=O)O)c1ccc(C(=O)O)c(O)c1 [(S)-4C3HPG]
- Affinity (pKi) (mGluR1 [3]): 5.8-6.0 pKi
- Affinity (pIC50) (mGluR5 [2]): 5.6 pIC50

Compound: N[C@H](C(=O)O)c1ccc(C(=O)O)cc1 [(S)-4CPG]
- Affinity (pKi) (mGluR1 [1]): 5.4 pKi
- Affinity (pIC50) (mGluR5 [2]): 4.6 pIC50

Compound: N[C@H](C(=O)O)C12CC(C(=O)O)(C1)C2 [(S)-(+)-CBPG]
- Affinity (pIC50) (mGluR1 [1]): 4.2 pIC50

Compound: N[C@H](C(=O)O)C12CC(c3nn[nH]n3)(C1)C2 [(S)-TBPG]
- Affinity (pIC50) (mGluR1 [1]): 4.2 pIC50

Compound: C[C@@](N)(C(=O)O)c1ccc(C(=O)O)cc1 [(s)-MCPG, (S)-α-Methyl-4-carboxyphenylglycine]
- Inhibition of activation of mGluR1α by L-Glu (WT mGluR1α; 1.5 mM (s)-MCPG, 5 μM L-Glu): entirely blocks
- Inhibition of responsiveness of mGluR1α to [Ca^2+]o (WT mGluR1α; 2.0 mM MCPG, 5 mM [Ca^2+]o): does not completely inhibit
- Affinity (pKi) (mGluR1 [1]): 3.8 pKi
- Affinity (pIC50) (mGluR5 [2]): 3.7 pIC50

Compound: CN(C)c1ccnc2sc3c(=O)n(N4CCCCCC4)cnc3c12 [A841720]
- Affinity (pIC50) (mGluR1 [3]): 8 pIC50

Compound: CN(C)c1nc(N)c(C(=O)Nc2ccccn2)nc1Cl [ACDPP]
- Affinity (pIC50) (mGluR5 [4]): 6.9 pIC50

Compound: O=C(c1ccc(F)cc1)N1CCC[C@H](c2nc(-c3ccc(F)cc3)no2)C1 [ADX-47273]
- Affinity (pIC50) (mGluR5 [2]): 6.5 pIC50

Compound: NC1(C(=O)O)CCc2cc(C(=O)O)ccc21 (stereo not shown) [AIDA]
- Affinity (pKi) (mGluR1 [1]): 4 pKi
- Affinity (pA2) (mGluR1 [3]): 4.2 pA2

Compound: C=C1C[C@@H]2COC(=O)[C@]2(Cc2ccc3ccccc3c2)C1 [BAY 367620]
- Affinity (pIC50) (mGluR1 [1]): 6.8-8.0 pIC50

Compound: COc1cc(-c2nc3ccccc3o2)ccc1CC#N [BOMA]
- Affinity (pKi) (mGluR5 [4]): 8.5 pKi

Compound: NC(C(=O)O)c1cc(O)ccc1Cl (stereo not shown) [CHPG]
- Affinity (pIC50) (mGluR5 [4]): 3.4 pIC50

Compound: N[C@H](C(=O)O)C1[C@@H](C(=O)O)[C@@H]1C(=O)O (stereo partly shown) [DCG-IV]
- Affinity (pKi) (mGluR1 [1]): 4.1 pKi
- Affinity (pIC50) (mGluR5 [2]): 4.7 pIC50

Compound: Fc1cccc(/C=N/N=C/c2cccc(F)c2)c1 [DFB]
- Affinity (pIC50) (mGluR5 [4]): 5.6-8.5 pIC50

Compound: CCCOC(=O)c1[nH]c(C)c(C(=O)O[C@@H](C)C(C)(C)C)c1C [DM-PPP]
- Affinity (pIC50) (mGluR1 [1]): 7.8 pIC50

Compound: CCn1c(C)nc(N2CCc3ccccc3CC2)c(C#N)c1=O [EM-TBPC]
- Affinity (pIC50) (mGluR1 [1]): 6.9 pIC50

Compound: N[C@H](C(=O)O)[C@H]1C[C@@H]1C(=O)O [L-CCG-I]
- Affinity (pKi) (mGluR1 [1]): 5.6 pKi
- Affinity (pIC50) (mGluR5 [2]): 5.8 pIC50

Compound: N[C@@H](CCC(=O)O)C(=O)O [L-Glu, L-glutamic acid]
- Percentage of cells with oscillation as a response to L-Glu (mGluR5 [5]; 0.5 or 1.8 mM extracellular Ca^2+): more than 50%
- Percentage of cells with oscillation as a response to L-Glu (mGluR5 [5]; without extracellular Ca^2+): less than 10%

Compound: N[C@@H](Cn1oc(=O)[nH]c1=O)C(=O)O [L-Quis, L-Quisqualate]
- Emax (WT mGluR1α; HEK293, read-out: Maximal Response to L-Quis): 37 ± 4%
- Emax (mGluR1α D322I; [Ca^2+]o 0 mM): 80 ± 16%
- Emax (mGluR1α D322I; [Ca^2+]o 1.8 mM): 96 ± 21%
- Emax (mGluR1α E325I; [Ca^2+]o 0 mM): 60 ± 8%
- Emax (mGluR1α E325I; [Ca^2+]o 1.8 mM): 88 ± 8%
- [^3H]-L-Quis binding to the mutant (mGluR1α D318I): eliminates L-Quis-binding
- Affinity (pIC50) (mGluR5 [2]): 7.5 pIC50
- mGluR5 response initiated by L-Quis (mGluR5 [5]; 0 mM Ca^2+ bath solution): almost could not initiate any mGluR5 response; also recorded: hardly showed any response
- Percentage of cells with L-Quis-triggered response (mGluR5 [5]; absence of extracellular Ca^2+ addition): less than 20%
- Percentage of cells with L-Quis-triggered response (mGluR5 [5]; with addition of extracellular Ca^2+, 5 nM L-Quis): more than 60%

Compound: Cc1cc(C(=O)O)ccc1[C@H](N)C(=O)O [LY367385]
- Affinity (pKi) (mGluR1 [1]): 5.9 pKi
- Affinity (pIC50) (mGluR1 [3]): 5.1 pIC50

Compound: COc1ccc(Nc2ncnc3ccc(OC)cc23)cc1 [LY456236]
- Affinity (pIC50) (mGluR1 [3]): 6.9 pIC50

Compound: Cc1nc(C#Cc2cccc(C#N)c2)cs1 [MTEB]
- Affinity (pIC50) (mGluR5 [4]): 8.7 pIC50

Compound: O=C(NC12CC3CC(CC(C3)C1)C2)c1cnc2ccccc2n1 [NPS2390]
- Affinity (pKi) (mGluR1 [1]): 8.9 pKi

Compound: O=C(Cc1ccccc1)c1ccc2nc3c(cc2c1)CCCO3 [R214127]
- Affinity (pKi) (mGluR1 [1]): 8.9 pKi
- Affinity (pIC50) (mGluR1 [3]): 8.9 pIC50

Compound: CCOC(=O)NC(=O)C(c1ccccc1)c1ccccc1 [Ro01-6128]
- Affinity (pKi) (mGluR1 [1]): 7.5-7.7 pKi

Compound: Cc1ccc(S(=O)(=O)N2CCC[C@H]2c2ccc(F)cc2)cc1 [Ro67-7476]
- Affinity (pKi) (mGluR1 [1]): 7.5-7.9 pKi

Compound: CCCCOC(=O)NC(=O)C1c2ccccc2Oc2ccccc21 [Ro 67-4853, (9H-xanthene-9-carbonyl) carbamic acid butyl ester]
- Max. Res. to Ro 67-4853 (WT mGluR1α; [Ca^2+]o 0.5 mM): 50 ± 8
- EC50 (WT mGluR1α; [Ca^2+]o 0.5 mM, pre-incubated with 0.5 mM Ca^2+ and 5 nM Ro 67-4853): 20.7 nM
- Max. Res. to Ro 67-4853 (WT mGluR1α; [Ca^2+]o 1.8 mM): 59 ± 4
- EC50 (WT mGluR1α; [Ca^2+]o 1.8 mM): 10 nM
- Affinity (pKi) (mGluR1 [1]): 5.1 pKi
- Stimulation of mGluR5 (intracellular Ca^2+ oscillation) (mGluR5 [5]; 0.5 mM Ca^2+, 5 nM): could lead to the stimulation of mGluR5; also recorded: caused high frequency Ca^2+ oscillation
- Stimulation of mGluR5 (intracellular Ca^2+ response) (mGluR5 [5]; no Ca^2+ in the bath solution, 5 to 100 nM): no intracellular Ca^2+ response was observed; also recorded: could not stimulate mGluR5

Compound: Cc1ccc(O)c(N=Nc2ccccc2)n1 [SIB-1757]
- Affinity (pIC50) (mGluR5 [4]): 6.0-6.4 pIC50

Compound: Cc1cccc(/C=C/c2ccccc2)n1 [SIB-1893]
- Affinity (pIC50) (mGluR5 [4]): 5.9-6.5 pIC50

Compound: O=C(Nc1cc(-c2ccccc2)nn1-c1ccccc1F)c1ccc([N+](=O)[O-])cc1 [VU-1545]
- Affinity (pEC50) (mGluR5 [4]): 8 pEC50

Compound: Cc1c(C(=O)N(C)C2CCCCC2)sc2nc3ccc(N)cc3n12 [YM298198]
- Affinity (pIC50) (mGluR1 [1]): 7.8 pIC50

Compound: CN1CC(=O)NC1=NC(=O)Nc1cccc(Cl)c1 [fenobam]
- Affinity (pIC50) (mGluR5 [4]): 7.2 pIC50

Compound: N[C@H](C(=O)O)c1cc(O)no1 [ibotenate]
- Affinity (pKi) (mGluR1 [1]): 5.9-6.4 pKi
- Affinity (pIC50) (mGluR5 [2]): 5.7 pIC50
